{"source": "patent US12239660B2", "about": "“Therapeutic composition and methods” (Viscera Labs, Inc., priority 2018, dated 2025)", "origin": "cited, not measured here", "settings": "in vivo, po"}
{"smiles": "O=C(O)c1cc(/N=N/c2ccc(S(=O)(=O)Nc3ccccn3)cc2)ccc1O", "note": "[sulfasalazin]", "values": [{"measurement": "drug released in the small intestine", "result": 12, "unit": "%"}]}
